Experimental data published in patent publication US11753411B2, “Substituted pyrazolo[1,5-a]pyrimidines as TYK2 pseudokinase ligands” (Ventyx Biosciences, Inc., priority 2019, dated 2023).
pIC50: −log10 of the molar value.

Each compound was assayed on IFN-a/Jak1 Tyk2 (assay: Co-stimulation assay in lysed whole blood: IFNa (JAK1/TYK2) stimulated STAT1 phosphorylation). Conditions: Homo sapiens, 20 min, 100 ng/mL IFNa (with 10 ng/mL GM-CSF), pSTAT by flow cytometry.
Type: cell-based
Description: Example 12: Co-Stimulation Assay in Lysed Whole Blood; JAK2: GM-CSF Stimulated STAT5 Phosphorylation and JAK1/TYK2 Stimulated STAT1 Phosphorylation Assay
Human Blood Lysis Using Abcam's RBC Lysis Buffer
Dilute RBC lysis buffer to 1× in distilled water. Add 2 mL blood to 38 mL of 1×RBC-lysis buffer. Incubate for 15 mins at RT, in dark. Spin at 300 g, 5 mins, to collect the pellet. Re-lyse if necessary. Re-suspend pellet in 5 mL of cRPMI.
Compound and Cytokine Treatment
Aliquot 80 μL of lysed human blood in to wells of 96 deep-well plate. Add 10 μl of (10× conc.) of different concentrations of compounds to all wells except controls (unstained and unstimulated) and mix it with the help of 100 uL multichannel. Add 10 uL of RPMI media in controls. For dilution of compounds and dilution range please refer Appendix. Incubate on water bath or CO2 incubator for 1 hour at 37° C. Add 10 μl of (10× conc.) of cytokine mix (GM-CSF and IFNa) (final conc.10 ng/mL of GM-CSF and 100 ng/mL of IFNa) to each well except unstimulated and unstained controls and incubate further for 20 minutes on water bath at 37° C.
Add 900 μL of prewarmed 1× Fix/Lyse solution (Appendix) and mix it properly using 1000 μl multichannel, incubate further on water bath at 37° C. for 10 minutes (which includes time of addition). Centrifuge at 800×g for 5 minutes at 40° C.; remove 900 uL of supernatant and add 900 μL of 1×PBS. Centrifuge at 800×g for 5 minutes at 40° C., remove 900 μL of supernatant. Wash one more time with 900 μL of PBS (optional) and resuspend pellets in 100 uL of PBS.
Disrupt the pellet by gentle tapping and resuspend in 1000 μL of BD Phosflow Perm Buffer III and incubate plate on ice for 30 minutes. Centrifuge plate at 800×g for 5 minutes at 40° C. Wash two more times with 1000 μL of BD Pharmingen Stain Buffer.
Disrupt the pellet by gentle tapping. Resuspend pellets in 100 uL of Stain Buffer and add 5 μL of pSTAT5_AF488 Ab and 5 uL of pSTAT_PE in all wells except unstained control and mix properly using 200 μl multichannel, incubate overnight at […]. Add 900 μL of wash buffer and centrifuge at 1800 rpm for 3 minutes at 40° C. Wash one more time with 1000 μL of BD Pharmingen Stain Buffer. Finally resuspend the pellet in 300 uL of BD Pharmingen Stain Buffer. Transfer the cells to 96-well v-bottom plate and acquire the cells in Beckman Coulter CytExpert. Acquiring cells in Flow Cytometer: Keep the threshold value to 250 and cell concentration should not exceed 100-500 cells/μL. Acquire at least 5,000-10,000 cells.
RPMI 1640 Complete Medium: RPMI 1640 media+10% FBS.
Cytokine dilution: 1) GM-CSF Stock at 100 ug/mL. Prepare an intermediate dilution of 1 ug/mL by adding 2 uL of stock into 198 uL of cRPMI. Further dilute to 100 ng/mL by adding 100 uL of the intermediate stock to 900 uL of cRPMI. 2) IFNa Stock at 200 ug/mL. Dilute IFNa stock 1:200 by adding 5 uL of stock into the 1000 uL of 100 ng/mL GM-CSF working stock as above to give a combined working stock of 1000 ng/mL of IFNa and 100 ng/mL GM-CSF (10×). Keep it on ice until used.
Lyse/Fix buffer preparation: Dilute 5× Lyse/Fix buffer to 1× using MQ water and keep at 37° C. until used.
BD Phosflow perm buffer III: Keep on ice/fridge.

Row | SMILES | pIC50
1 | CNc1cc(Nc2cccc3c2OCCC3=O)nc2c(NC(=O)N[C@@H]3C[C@@H]3F)cnn12 [Compound 183, 1-((1R,2S)-2-fluorocyclopropyl)-3-(7-(methylamino)-5-((4-oxochroman-8-yl)amino)pyrazolo[1,5-a]pyrimidin-3-yl)urea] | > 6.00
2 | CNc1cc(Nc2cccc3c2OCCO3)nc2c(NC(=O)NC3CC(F)(F)C3)cnn12 [Compound 34, 1-(3,3-difluorocyclobutyl)-3-(5-((2,3-dihydrobenzo[b][1,4]dioxin-5-yl)amino)-7-(methylamino)pyrazolo[1,5-a]pyrimidin-3-yl)urea] | 5.00 to 6.00
3 | CNc1cc(Nc2cc(F)cc3c2OCCO3)nc2c(NC(=O)NCC#N)cnn12 [Compound 114, 1-(cyanomethyl)-3-(5-((7-fluoro-2,3-dihydrobenzo[b][1,4]dioxin-5-yl)amino)-7-(methylamino)pyrazolo[1,5-a]pyrimidin-3-yl)urea] | > 6.00
4 | CNC(=O)Nc1cnn2c(NC)cc(Nc3ccc(OC)cc3)nc12 [Compound 151, 1-(5-((4-methoxyphenyl)amino)-7-(methylamino)pyrazolo[1,5-a]pyrimidin-3-yl)-3-methylurea] | 5.00 to 6.00
5 | CNc1cc(Nc2cccc3c2OCCO3)nc2c(NC(=O)NC3COC3)cnn12 [Compound 117, 1-(5-((2,3-dihydrobenzo[b][1,4]dioxin-5-yl)amino)-7-(methylamino)pyrazolo[1,5-a]pyrimidin-3-yl)-3-(oxetan-3-yl)urea] | > 6.00
6 | CNc1cc(Nc2cc(F)cc3c2OCCO3)nc2c(NC(=O)NCC(F)F)cnn12 [Compound 133, 1-(2,2-difluoroethyl)-3-(5-((7-fluoro-2,3-dihydrobenzo[b][1,4]dioxin-5-yl)amino)-7-(methylamino)pyrazolo[1,5-a]pyrimidin-3-yl)urea] | 5.00 to 6.00
7 | CNc1cc(Nc2cccc3c2OCCO3)nc2c(NC(=O)NCC(F)F)cnn12 [Compound 134, 1-(2,2-difluoroethyl)-3-(5-((2,3-dihydrobenzo[b][1,4]dioxin-5-yl)amino)-7-(methylamino)pyrazolo[1,5-a]pyrimidin-3-yl)urea] | 5.00 to 6.00
8 | CNC(=O)Nc1cnn2c(NC)cc(Nc3ccccc3-c3ncco3)nc12 [Compound 71, 1-methyl-3-(7-(methylamino)-5-((2-(oxazol-2-yl)phenyl)amino)pyrazolo[1,5-a]pyrimidin-3-yl)urea] | > 6.00
9 | CNc1cc(Nc2cccc3cccnc23)nc2c(NC(=O)N[C@@H]3C[C@@H]3F)cnn12 [Compound 39, 1-((1R,2S)-2-fluorocyclopropyl)-3-(7-(methylamino)-5-(quinolin-8-ylamino)pyrazolo[1,5-a]pyrimidin-3-yl)urea] | > 6.00
10 | CNc1cc2nc3c(cnn13)NC(=O)NCCOc1cccc(c1)N2 [Compound 22, (1^3E,1^4E)-1^7-(methylamino)-4-oxa-2,7,9-triaza-1(5,3)-pyrazolo[1,5-a]pyrimidina-3(1,3)-benzenacyclononaphan-8-one] | 5.00 to 6.00
11 | CNc1cc(Nc2cccc3c2OCCC3(F)F)nc2c(NC(=O)N[C@@H]3C[C@@H]3F)cnn12 [Compound 184, 1-(5-((4,4-difluorochroman-8-yl)amino)-7-(methylamino)pyrazolo[1,5-a]pyrimidin-3-yl)-3-((1R,2S)-2-fluorocyclopropyl)urea] | 5.00 to 6.00
12 | CNC(=O)Nc1cnn2c(NC)cc(Nc3ccccc3OC(F)(F)F)nc12 [Compound 168, 1-methyl-3-(7-(methylamino)-5-((2-(trifluoromethoxy)phenyl)amino)pyrazolo[1,5-a]pyrimidin-3-yl)urea] | 5.00 to 6.00
13 | CNc1cc(Nc2cc(F)cc3c2OCCO3)nc2c(NC(=O)NCCC(F)F)cnn12 [Compound 178, 1-(3,3-difluoropropyl)-3-(5-((7-fluoro-2,3-dihydrobenzo[b][1,4]dioxin-5-yl)amino)-7-(methylamino)pyrazolo[1,5-a]pyrimidin-3-yl)urea] | > 6.00
14 | CNC(=O)Nc1cnn2c(NC)cc(Nc3c(F)cccc3F)nc12 [Compound 90, 1-(5-((2,6-difluorophenyl)amino)-7-(methylamino)pyrazolo[1,5-a]pyrimidin-3-yl)-3-methylurea] | 5.00 to 6.00
15 | CNc1cc(Nc2cccc3c2OCCO3)nc2c(NC(=O)N(C)C)cnn12 [Compound 140, 3-(5-((2,3-dihydrobenzo[b][1,4]dioxin-5-yl)amino)-7-(methylamino)pyrazolo[1,5-a]pyrimidin-3-yl)-1,1-dimethylurea] | ≤ 5.00
16 | CNc1cc(-c2cn(C(C)C)c3ncccc23)nc2c(NC(=O)N[C@H]3CC[C@H]3O)cnn12 [Compound 57, 1-((1S,2R)-2-hydroxycyclobutyl)-3-(5-(1-isopropyl-1H-pyrrolo[2,3-b]pyridin-3-yl)-7-(methylamino)pyrazolo[1,5-a]pyrimidin-3-yl)urea] | 5.00 to 6.00
17 | CNC(=O)Nc1cnn2c(NC)cc(Nc3ccccc3-c3ccccc3)nc12 [Compound 165, 1-(5-([1,1′-biphenyl]-2-ylamino)-7-(methylamino)pyrazolo[1,5-a]pyrimidin-3-yl)-3-methylurea] | ≤ 5.00
18 | CNc1c(F)c(Nc2cccc3c2OCCO3)nc2c(NC(=O)N[C@@H]3C[C@@H]3F)cnn12 [Compound 55, 1-(5-((2,3-dihydrobenzo[b][1,4]dioxin-5-yl)amino)-6-fluoro-7-(methylamino)pyrazolo[1,5-a]pyrimidin-3-yl)-3-((1R,2S)-2-fluorocyclopropyl)urea] | ≤ 5.00
19 | CNC(=O)Nc1cnn2c(NC)cc(Nc3cc(C(F)(F)F)cc4c3OCCO4)nc12 [Compound 76, 1-methyl-3-(7-(methylamino)-5-((7-(trifluoromethyl)-2,3-dihydrobenzo[b][1,4]dioxin-5-yl)amino)pyrazolo[1,5-a]pyrimidin-3-yl)urea] | > 6.00
20 | CNc1cc(Nc2cccc3c2OCCO3)nc2c(NC(=O)NC3CC3O)cnn12 (stereo not shown) [Compound 32, 1-(5-((2,3-dihydrobenzo[b][1,4]dioxin-5-yl)amino)-7-(methylamino)pyrazolo[1,5-a]pyrimidin-3-yl)-3-(2-hydroxycyclopropyl)urea] | ≤ 5.00
21 | [2H]C([2H])([2H])Nc1cc(-c2cn(C3CCOC3)c3ncccc23)nc2c(NC(=O)NC)cnn12 (stereo not shown) [Compound 75, 1-methyl-3-(7-((methyl-d3)amino)-5-(1-(tetrahydrofuran-3-yl)-1H-pyrrolo[2,3-b]pyridin-3-yl)pyrazolo[1,5-a]pyrimidin-3-yl)urea] | > 6.00
22 | CNC(=O)Nc1cnn2c(NC)cc(Nc3ccc(F)c4c3OCCO4)nc12 [Compound 142, 1-(5-((8-fluoro-2,3-dihydrobenzo[b][1,4]dioxin-5-yl)amino)-7-(methylamino)pyrazolo[1,5-a]pyrimidin-3-yl)-3-methylurea] | > 6.00
23 | CNc1cc(-c2cn(C(C)C)c3ncccc23)nc2c(NC(=O)NCC#N)cnn12 [Compound 130, 1-(cyanomethyl)-3-(5-(1-isopropyl-1H-pyrrolo[2,3-b]pyridin-3-yl)-7-(methylamino)pyrazolo[1,5-a]pyrimidin-3-yl)urea] | > 6.00
24 | CNC(=O)Nc1cnn2c(NC)cc(Nc3cc(C#N)cc4c3OCCO4)nc12 [Compound 83, 1-(5-((7-cyano-2,3-dihydrobenzo[b][1,4]dioxin-5-yl)amino)-7-(methylamino)pyrazolo[1,5-a]pyrimidin-3-yl)-3-methylurea] | > 6.00
25 | CNC(=O)Nc1cnn2c(NC)cc(Nc3cc(F)cc4c3OCCO4)nc12 [Compound 65, 1-(5-((7-fluoro-2,3-dihydrobenzo[b][1,4]dioxin-5-yl)amino)-7-(methylamino)pyrazolo[1,5-a]pyrimidin-3-yl)-3-methylurea] | > 6.00
